Laboratory results as given in patent US10577363B2, “Substituted piperidine compounds” (EPIZYME, INC., priority 2014, dated 2020).

Experiments:
[1] = biological target: T1, SMYD3 (Homo sapiens (Human), UniProt Q9H7B4); test: SMYD3 cell assay (Trimethyl-MEKK2 In-Cell Western in 293T/17 cells); assay type: cell-based; settings: Table 2A; read-out: SMYD3 Cell IC50
Outline: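 In-Cell Western readout: methanol-fixed cells stained for trimethyl-MEKK2 and flag tag, ratio per well normalized to DMSO and background controls.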

[2] = biological target: T1, SMYD3; test: SMYD3 biochemical assay (SPA, 3H-SAM methylation of MEKK2 protein substrate); settings: Table 2A; read-out: SMYD3 Biochem IC50
Outline: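 Methylation of N-terminally GST-tagged MEKK2 by untagged full-length human SMYD3, using 3H-SAM, in pH 8.0 Tris buffer with TCEP, BSG and Tween 20; enzyme and compound sat 30 min at room temperature before substrate addition. Stopped with 100 uM (final) cold SAM; incorporation read by scintillation proximity as dpm/cpm.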

T1 sequence (Q9H7B4 whole entry): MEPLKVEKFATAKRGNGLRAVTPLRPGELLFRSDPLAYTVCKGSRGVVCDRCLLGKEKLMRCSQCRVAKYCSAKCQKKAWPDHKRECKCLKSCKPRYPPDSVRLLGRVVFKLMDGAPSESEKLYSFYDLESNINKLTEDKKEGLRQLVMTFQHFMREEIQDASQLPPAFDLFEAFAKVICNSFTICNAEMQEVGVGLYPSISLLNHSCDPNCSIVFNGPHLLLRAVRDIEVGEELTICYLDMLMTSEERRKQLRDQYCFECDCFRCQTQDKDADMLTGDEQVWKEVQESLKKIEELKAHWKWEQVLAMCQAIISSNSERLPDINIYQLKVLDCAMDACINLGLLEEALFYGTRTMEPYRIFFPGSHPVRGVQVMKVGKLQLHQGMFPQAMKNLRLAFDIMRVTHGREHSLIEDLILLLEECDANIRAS

IC50 [1] [nM] | IC50 [2] [nM] | Structure (SMILES)
333 | 14.3 | C[C@H]1CN(S(=O)(=O)CCCN)[C@@H](C)C[C@H]1NC(=O)c1cc(C2CC2)on1 [compound 601, N-((2S,4R,5S)-1-((3-aminopropyl)sulfonyl)-2,5-dimethylpiperidin-4-yl)-5-cyclopropylisoxazole-3-carboxamide]
1170 | 17.8 | CC(C)N1CCC(CS(=O)(=O)N2CC[C@@H](NC(=O)c3cc(C4CC4)on3)C[C@H]2C)CC1 [compound 607, 5-cyclopropyl-N-((2R,4R)-1-(((1-isopropylpiperidin-4-yl)methyl)sulfonyl)-2-methylpiperidin-4-yl)isoxazole-3-carboxamide]
225 | 17.8 | C[C@H]1CN(S(=O)(=O)CC2CCN(CCCO)CC2)CC[C@H]1NC(=O)c1cc(C2CC2)on1 [compound 608, 5-cyclopropyl-N-((3S,4R)-1-(((1-(3-hydroxypropyl)piperidin-4-yl)methyl)sulfonyl)-3-methylpiperidin-4-yl)isoxazole-3-carboxamide]
1030 | 20 | CC(C)CN1CCC(CS(=O)(=O)N2CC[C@@H](NC(=O)c3cc(C4CC4)on3)C[C@H]2C)CC1 [compound 611, 5-cyclopropyl-N-((2R,4R)-1-(((1-isobutylpiperidin-4-yl)methyl)sulfonyl)-2-methylpiperidin-4-yl)isoxazole-3-carboxamide]
212 | 20.9 | C[C@H]1CN(S(=O)(=O)CC2CCN(CCCC(F)(F)F)CC2)CC[C@H]1NC(=O)c1cc(C2CC2)on1 [compound 613, 5-cyclopropyl-N-((3S,4R)-3-methyl-1-(((1-(4,4,4-trifluorobutyl)piperidin-4-yl)methyl)sulfonyl)piperidin-4-yl)isoxazole-3-carboxamide]
304 | 21.2 | C[C@H]1CN(S(=O)(=O)N2CCC(NCc3ccccc3)CC2)CC[C@H]1NC(=O)c1cc(C2CC2)on1 [compound 614, N-((3S,4R)-1-((4-(benzylamino)piperidin-1-yl)sulfonyl)-3-methylpiperidin-4-yl)-5-cyclopropylisoxazole-3-carboxamide]
220 | 23.2 | C[C@H]1CN(S(=O)(=O)CC2CCNCC2)CC[C@H]1NC(=O)c1cc(C2CC2)on1 [compound 618, 5-cyclopropyl-N-((3S,4R)-3-methyl-1-((piperidin-4-ylmethyl)sulfonyl)piperidin-4-yl)isoxazole-3-carboxamide]
223 | 23.4 | C[C@H]1CN(S(=O)(=O)N2CCNCC2)CC[C@H]1NC(=O)c1cc(C2CC2)on1 [compound 621, 5-cyclopropyl-N-((3S,4R)-3-methyl-1-(piperazin-1-ylsulfonyl)piperidin-4-yl)isoxazole-3-carboxamide]
231 | 23.7 | C[C@H]1CN(S(=O)(=O)CC2CCN(CCO)CC2)CC[C@H]1NC(=O)c1cc(C2CC2)on1 [compound 623, 5-cyclopropyl-N-((3S,4R)-1-(((1-(2-hydroxyethyl)piperidin-4-yl)methyl)sulfonyl)-3-methylpiperidin-4-yl)isoxazole-3-carboxamide]
224 | 25.3 | C[C@H]1CN(S(=O)(=O)CC2CCN(C)CC2)CC[C@H]1NC(=O)c1cc(C2CC2)on1 [compound 625, 5-cyclopropyl-N-((3S,4R)-3-methyl-1-(((1-methylpiperidin-4-yl)methyl)sulfonyl)piperidin-4-yl)isoxazole-3-carboxamide]

The next lines start with the compound.

Structure (SMILES) | IC50 [1] [nM] | IC50 [2] [nM]
CC1(C)CN(S(=O)(=O)N2[C@@H]3CC[C@H]2C[C@@H](NC(=O)c2cc(C4CC4)on2)C3)CCN1 [compound 600, 5-cyclopropyl-N-((1R,3r,5S)-8-((3,3-dimethylpiperazin-1-yl)sulfonyl)-8-azabicyclo[3.2.1]octan-3-yl)isoxazole-3-carboxamide] | 118 | 13.5
O=C(N[C@H]1C[C@H]2CC[C@@H](C1)N2S(=O)(=O)N1C2CCC1CNC2)c1cc(C2CC2)on1 [compound 602, N-((1R,3r,5S)-8-((3,8-diazabicyclo[3.2.1]octan-8-yl)sulfonyl)-8-azabicyclo[3.2.1]octan-3-yl)-5-cyclopropylisoxazole-3-carboxamide] | 132 | 14.5
CN(C)CCN(C)CCS(=O)(=O)N1[C@@H]2CC[C@H]1C[C@@H](NC(=O)c1cc(C3CC3)on1)C2 [compound 603, 5-cyclopropyl-N-((1R,3r,5S)-8-((2-((2-(dimethylamino)ethyl)(methyl)amino)ethyl)sulfonyl)-8-azabicyclo[3.2.1]octan-3-yl)isoxazole-3-carboxamide] | 239 | 14.7
COCCNCCCS(=O)(=O)N1[C@@H]2CC[C@H]1C[C@@H](NC(=O)c1cc(C3CC3)on1)C2 [compound 604, 5-cyclopropyl-N-((1R,3r,5S)-8-((3-((2-methoxyethyl)amino)propyl)sulfonyl)-8-azabicyclo[3.2.1]octan-3-yl)isoxazole-3-carboxamide] | 200 | 16.2
CNCCNCCS(=O)(=O)N1[C@@H]2CC[C@H]1C[C@@H](NC(=O)c1cc(C3CC3)on1)C2 [compound 605, 5-cyclopropyl-N-((1R,3r,5S)-8-((2-((2-(methylamino)ethyl)amino)ethyl)sulfonyl)-8-azabicyclo[3.2.1]octan-3-yl)isoxazole-3-carboxamide] | 302 | 17.5
CN1CCC(N(C)S(=O)(=O)N2[C@@H]3CC[C@H]2C[C@@H](NC(=O)c2cc(C4CC4)on2)C3)CC1 [compound 606, 5-cyclopropyl-N-((1R,3r,5S)-8-(N-methyl-N-(1-methylpiperidin-4-yl)sulfamoyl)-8-azabicyclo[3.2.1]octan-3-yl)isoxazole-3-carboxamide] | 235 | 17.7
C[C@H]1C[C@@H](NC(=O)c2cc(C3CC3)on2)CCN1S(=O)(=O)CCCNCc1cccc(C(F)(F)F)c1 [compound 609, 5-cyclopropyl-N-((2S,4S)-2-methyl-1-((3-((3-(trifluoromethyl)benzyl)amino)propyl)sulfonyl)piperidin-4-yl)isoxazole-3-carboxamide] | 451 | 18.8
CN(C)CCN(C)CCCS(=O)(=O)N1[C@@H]2CC[C@H]1C[C@@H](NC(=O)c1cc(C3CC3)on1)C2 [compound 610, 5-cyclopropyl-N-((1R,3r,5S)-8-((3-((2-(dimethylamino)ethyl)(methyl)amino)propyl)sulfonyl)-8-azabicyclo[3.2.1]octan-3-yl)isoxazole-3-carboxamide] | 332 | 19.4
C[C@H]1C[C@@H](NC(=O)c2cc(C3CC3)on2)CCN1S(=O)(=O)CCCNCC1CCCCC1 [compound 612, N-((2S,4S)-1-((3-((cyclohexylmethyl)amino)propyl)sulfonyl)-2-methylpiperidin-4-yl)-5-cyclopropylisoxazole-3-carboxamide] | 217 | 20.7
C[C@H]1C[C@@H](NC(=O)c2cc(C3CC3)on2)CCN1S(=O)(=O)N1C2CCC1CNC2 [compound 615, N-((2S,4S)-1-((3,8-diazabicyclo[3.2.1]octan-8-yl)sulfonyl)-2-methylpiperidin-4-yl)-5-cyclopropylisoxazole-3-carboxamide] | 233 | 21.7
C[C@@H]1C[C@H](NC(=O)c2cc(C3CC3)on2)CCN1C(=O)c1ccc(C2CCCNC2)cc1 (stereo partly drawn) [compound 616, 5-cyclopropyl-N-((2R,4R)-2-methyl-1-(4-(piperidin-3-yl)benzoyl)piperidin-4-yl)isoxazole-3-carboxamide] | 595 | 21.9
CCN1CCN(S(=O)(=O)N2CC[C@H](NC(=O)c3cc(C4CC4)on3)C[C@@H]2C)CC1 [compound 617, 5-cyclopropyl-N-((2S,4S)-1-((4-ethylpiperazin-1-yl)sulfonyl)-2-methylpiperidin-4-yl)isoxazole-3-carboxamide] | 183 | 22.8
O=C(N[C@H]1C[C@H]2CC[C@@H](C1)N2S(=O)(=O)CC1CCN(CCN2CCOCC2)CC1)c1cc(C2CC2)on1 [compound 619, 5-cyclopropyl-N-((1R,3r,5S)-8-(((1-(2-morpholinoethyl)piperidin-4-yl)methyl)sulfonyl)-8-azabicyclo[3.2.1]octan-3-yl)isoxazole-3-carboxamide] | 592 | 23.2
CNCCN(C)CCS(=O)(=O)N1[C@@H]2CC[C@H]1C[C@@H](NC(=O)c1cc(C3CC3)on1)C2 [compound 620, 5-cyclopropyl-N-((1R,3r,5S)-8-((2-(methyl(2-(methylamino)ethyl)amino)ethyl)sulfonyl)-8-azabicyclo[3.2.1]octan-3-yl)isoxazole-3-carboxamide] | 339 | 23.3
CNCCN(C)CCCS(=O)(=O)N1[C@@H]2CC[C@H]1C[C@@H](NC(=O)c1cc(C3CC3)on1)C2 [compound 622, 5-cyclopropyl-N-((1R,3r,5S)-8-((3-(methyl(2-(methylamino)ethyl)amino)propyl)sulfonyl)-8-azabicyclo[3.2.1]octan-3-yl)isoxazole-3-carboxamide] | 464 | 23.4
C[C@H]1CNCCN1S(=O)(=O)N1CC[C@H](NC(=O)c2cc(C3CC3)on2)C[C@@H]1C [compound 624, 5-cyclopropyl-N-((2S,4S)-2-methyl-1-(((S)-2-methylpiperazin-1-yl)sulfonyl)piperidin-4-yl)isoxazole-3-carboxamide] | 284 | 24.6
C[C@H]1C[C@@H](NC(=O)c2cc(C3CC3)on2)CCN1S(=O)(=O)N1C[C@H]2C[C@@H]1CN2C [compound 626, 5-cyclopropyl-N-((2S,4S)-2-methyl-1-(((1R,4R)-5-methyl-2,5-diazabicyclo[2.2.1]heptan-2-yl)sulfonyl)piperidin-4-yl)isoxazole-3-carboxamide] | 157 | 25.3
